Values belong to the molecule of their own block, whether it stands above or below them.
How the values were obtained:
MC-I [1] = biological target: MC-I; design: method as in PMID 24285187, PMID 24470629; conditions: affinity to MC-I; cited from earlier work
MC-I [2] = system: MC-I; design: method as in PMID 24470629; conditions: rotenone 0.1 mg/kg; cited from earlier work
[3] = system: mitochondrial complex I (MC-I); assay: binding specificity of 18F-BCPP-BF to MC-I: pre-administration of rotenone, PET; format: in vivo, rat; conditions: rotenone 0.1 mg/kg/h i.v. infusion for 1 h before probe
Procedure: (§1) Four animals per group were used for PET imaging.
(§2) Rats anesthetized by 1.5–2.0% isoflurane in O2 were positioned prone on a fixation plate and placed in the gantry hole of the PET scanner (SHR-7700, Hamamatsu Photonics, Hamamatsu, Japan). After a transmission scan for 15 min using a ^68Ge-^68Ga rotation rod source, ^18F-BCPP-BF at ca. 15 MBq was intravenously injected into each rat via the tail vein, and this was followed by an emission scan with list mode data acquisition (every 1 ms) for 90 min. The body temperature of each animal was monitored to record throughout the study using a Thermo-Hygro Recorder (TR-72Ui, T&D Corporation, Matsumoto, Japan).
(§3) The PET data obtained were reconstructed by Dynamic RAMLA (DRAMA) method with a Gauss filter of 1.0-mm FWHM and attenuation correction using the transmission scan data. Dynamic images every 2 min for the time activity curve (TAC) as well as summation images in the early (from 15 to 30 min after ^18F-BCPP-BF injection) and late (from 70 to 90 min) phases were reconstructed. Since there were no information on the TACs of ^18F-BCPP-BF in the liver and kidney, we conducted PET data acquisition up to 90 min after the injection.
(§4) Standard uptake value (SUV) images were created as follows: SUV=CTWs/Dinj
(§5) where C T is the tissue radioactivity (Bq/mL) obtained from PET images, W s is the body weight (g) of the rat being examined, and D inj is the injected dose (Bq) of ^18F-BCPP-BF. Each summation SUV image was superimposed on the corresponding X-CT images obtained using ClairvivoCT (Shimadzu Corporation, Kyoto, Japan). Volumes of interest (VOIs) were selected on summation images of the kidney (renal cortex and pelvis) and liver in the early (from 15 to 30 min) and late (from 70 to 90 min) phases and TACs were obtained from dynamic image data in each organ as SUV by setting the early phase VOIs.

[4] = design: method as in PMID 24285187, PMID 24470629; conditions: pH 7.4; cited from earlier work
[5] = system: mitochondrial complex I (MC-I); assay: PET kinetics and distribution of 18F-BCPP-BF in rat abdominal organs; format: in vivo
Procedure: as §1, §2, §3, §4, §5

[6] = system: mitochondrial complex I (MC-I); design: method as in PMID 24470629; conditions: with time, significant at the later phase of 60 min after injection; cited from earlier work
[7] = system: mitochondrial complex I (MC-I); assay: effects of acetaminophen on MC-I activity (18F-BCPP-BF uptake, PET); format: in vivo, rat
Procedure: In order to evaluate the acute effects of acetaminophen, vehicle or acetaminophen at a dose of 100 or 300 mg/kg in 10 mL/kg of vehicle (saline containing 20% Tween-80) was intraperitoneally administered 2 or 24 h before the PET probe injection.
as §2, §3, §4, §5

kidney = assay: biochemical parameters for renal function in urine and serum after acetaminophen; format: in vivo, rat
Procedure: (§6) In a separate study from PET measurements, physiological and biochemical assessments were conducted on four animals for each time and dosing condition. Body weight measurements, urine collection, and blood sampling were conducted 2, 6, and 24 h after the administration of acetaminophen. A rat was placed in a metabolic cage on a 12/12-h light/dark cycle, and urine samples were collected for 24 h and centrifuged to remove suspended material, and the supernatants were analyzed to measure total protein, creatinine, and N-acetyl-β-D-glucosaminidase (NAG) using a biochemical automatic analyzer (JCA-BM6010, JEOL Ltd., Tokyo, Japan). Blood sample was collected from the tail vein, and the serum fraction separated from the blood was used in assay of alanine aminotransferase (ALT), aspartate aminotransferase (AST), lactate dehydrogenase (LDH), bilirubin (BIL), and BUN using a biochemical automatic analyzer (JCA-BM6010, JEOL Ltd., Tokyo, Japan).

liver [8] = assay: biochemical parameters for hepatic function in serum after acetaminophen; format: in vivo, rat
Procedure: as §6

liver [9] = system: liver; design: method as in PMID 26102222; conditions: acetaminophen 300 mg/kg, mice; cited from earlier work
[10] = control rat, 15 to 30 min post-injection, i.v.
[11] = control rat, 70 to 90 min post-injection, i.v.
[12] = 24 h after acetaminophen 300 mg/kg i.p., p = 0.027
[13] = 24 h after acetaminophen 300 mg/kg i.p., p < 0.001
[14] = 24 h after acetaminophen 300 mg/kg i.p., p = 0.034

SMILES: CC(C)(C)n1ncc(OCc2ccc(OCCCCF)nc2)c(Cl)c1=O [^18F-BCPP-BF, 2-tert-butyl-4-chloro-5-[6-(4-^18F-fluorobutoxy)-pyridin-3-ylmethoxy]-2H-pyridazin-3-one]
Ki (MC-I [1]): 0.7 nM

SMILES: C=C(C)[C@H]1Cc2c(ccc3c2O[C@@H]2COc4cc(OC)c(OC)cc4[C@@H]2C3=O)O1 [rotenone]
inhibition of the binding of MC-I PET probes to MC-I in the heart and brain (MC-I [2]): fully inhibited
18F-BCPP-BF uptake level in renal cortex vs. control ([3]; averaged SUV 15 to 30 min, p = 0.027): 64.2%
18F-BCPP-BF uptake level in liver vs. control ([3]; averaged SUV 15 to 30 min, p = 0.038): 76.9%
inhibition degree of 18F-BCPP-BF uptake in renal cortex, of control ([3]; averaged SUV 70 to 90 min, p = 0.006): 52.2%

SMILES: CC(C)(C)n1ncc(OCc2ccc(OCCOCC[18F])nc2)c(Cl)c1=O [^18F-BCPP-EF, 2-tert-butyl-4-chloro-5-{6-[2-(2-^18F-fluoroethoxy)-ethoxy]-pyridin-3-ylmethoxy}-2H-pyridazin-3-one]
logD7.4 [4]: 3.03

SMILES: CC(C)(C)n1ncc(OCc2ccc(OCCCC[18F])nc2)c(Cl)c1=O [^18F-BCPP-BF, 2-tert-butyl-4-chloro-5-[6-(4-^18F-fluorobutoxy)-pyridin-3-ylmethoxy]-2H-pyridazin-3-one]
averaged SUV, liver [5, 10]: 4.40 ± 0.39
averaged SUV, renal cortex [5, 10]: 8.12 ± 0.69
averaged SUV, renal pelvis [5, 10]: 4.17 ± 0.51
averaged SUV, bladder ([5]; control rat, 15 to 30 min post-injection, i.v., data not shown): 0.88 ± 0.42
averaged SUV, liver [5, 11]: 3.75 ± 0.38
averaged SUV, renal cortex [5, 11]: 6.29 ± 0.30
averaged SUV, renal pelvis [5, 11]: 4.37 ± 0.64
type of kinetics of the time activity curves ([5]; rat renal cortex and liver, PET TACs): reversible-type kinetics
accumulation of radioactivity in bone (defluorination) [6]: slightly greater accumulation of radioactivity in bone with time
logD7.4 [4]: 4.27

SMILES: COCCOCCOc1ccc(COc2cnn(C(C)(C)C)c(=O)c2Cl)cn1 [^11C-BCPP-EM, 2-tert-butyl-4-chloro-5-{6-[2-(2-^11C-methoxy-ethoxy)-ethoxy]-pyridin-3-ylmethoxy}-2H-pyridazin-3-one]
Ki (MC-I [1]): 4.7 nM

SMILES: CC(C)(C)n1ncc(OCc2ccc(OCCOCCF)nc2)c(Cl)c1=O [^18F-BCPP-EF, 2-tert-butyl-4-chloro-5-{6-[2-(2-^18F-fluoroethoxy)-ethoxy]-pyridin-3-ylmethoxy}-2H-pyridazin-3-one]
Ki (MC-I [1]): 2.31 nM

SMILES: CC(C)(C)n1ncc(OCc2ccc(OCCOCCO[11CH3])nc2)c(Cl)c1=O [^11C-BCPP-EM, 2-tert-butyl-4-chloro-5-{6-[2-(2-^11C-methoxy-ethoxy)-ethoxy]-pyridin-3-ylmethoxy}-2H-pyridazin-3-one]
logD7.4 [4]: 2.87

urinary protein excretion vs. 100 mg/kg (kidney; 6 h after acetaminophen 300 mg/kg i.p., p = 0.017): 46.9%
urinary protein excretion vs. control (kidney; 6 h after acetaminophen 300 mg/kg i.p., p = 0.028): 56.4%
urinary protein excretion vs. 100 mg/kg (kidney; [12]): 143.0%
urinary protein excretion vs. control (kidney; [12]): 128.9%
BUN change (kidney; serum, acetaminophen treatment, at any time): did not show any significant alterations
creatinine level vs. control (kidney; urine, 6 h after acetaminophen 300 mg/kg i.p., p < 0.001): 24.3%
creatinine level vs. 100 mg/kg (kidney; urine, 6 h after acetaminophen 300 mg/kg i.p., p = 0.002): 23.4%
NAG vs. control (kidney; urine, 24 h after acetaminophen 300 mg/kg i.p., p = 0.011): 161.8%
NAG vs. 100 mg/kg (kidney; urine, 24 h after acetaminophen 300 mg/kg i.p., p = 0.027): 164.8%
NAG change (kidney; urine, acetaminophen 100 mg/kg i.p.): did not show any significant changes
BIL vs. the corresponding 100 mg/kg (liver [8]; [14]): 233.3%
BIL vs. the corresponding control (liver [8]; [14]): 186.2%
BIL level change (liver [8]; acetaminophen 100 mg/kg i.p.): did not show significant changes
LDH change from the control condition (liver [8]; acetaminophen 100 or 300 mg/kg i.p., 2, 6 and 24 h): did not show any significant alterations
SMILES: CC(=O)Nc1ccc(O)cc1 [acetaminophen]
18F-BCPP-BF uptake by the liver vs. control ([7]; acetaminophen 100 mg/kg i.p., 2 h after, SUV 15 to 30 min, p = 0.017): 72.1%
18F-BCPP-BF uptake in the renal cortex vs. control ([7]; acetaminophen 100 mg/kg i.p., 24 h after, SUV 15 to 30 min, p = 0.038): 83.4%
18F-BCPP-BF uptake by the liver vs. control ([7]; acetaminophen 100 mg/kg i.p., 24 h after, SUV 15 to 30 min, p = 0.049): 81.4%
18F-BCPP-BF uptake by the liver vs. control ([7]; acetaminophen 300 mg/kg i.p., 2 h after, SUV 15 to 30 min, p = 0.003): 53.9%
18F-BCPP-BF uptake in the renal cortex vs. control ([7]; acetaminophen 300 mg/kg i.p., 2 h after, SUV 15 to 30 min, p = 0.025): 72.1%
18F-BCPP-BF uptake in the renal pelvis vs. control ([7]; acetaminophen 300 mg/kg i.p., 2 h after, SUV 15 to 30 min, p = 0.027): 56.6%
18F-BCPP-BF uptake by the liver vs. control ([7]; acetaminophen 300 mg/kg i.p., 24 h after, SUV 15 to 30 min, p = 0.002): 80.5%
18F-BCPP-BF uptake in the renal cortex vs. control ([7]; acetaminophen 300 mg/kg i.p., 24 h after, SUV 15 to 30 min, p = 0.009): 79.5%
reduction of MC-I activity in the liver assessed using 18F-BCPP-BF ([7]; acetaminophen 300 mg/kg in rats): approximately 50%
18F-BCPP-BF uptake in the renal pelvis ([7]; acetaminophen i.p., 24 h after, SUV 15 to 30 min): no significant reduction
AST vs. the corresponding 100 mg/kg (liver [8]; [13]): 383.0%
AST vs. the corresponding control (liver [8]; [13]): 322.3%
ALT vs. the corresponding control (liver [8]; 24 h after acetaminophen 300 mg/kg i.p., p = 0.001): 207.4%
ALT level change (liver [8]; acetaminophen 100 mg/kg i.p.): did not show significant changes
AST level change (liver [8]; acetaminophen 100 mg/kg i.p.): did not show significant changes
reduction in 18F-2-DFR uptake by the liver (liver [9]): approximately 20%

Source: PMC5118230, “Effects of acetaminophen on mitochondrial complex I activity in the rat liver and kidney: a PET study with ^18F-BCPP-BF” (EJNMMI Research, 2016)
